Test results from patent US20110318273A1, “FLUORESCENT CONTRAST AGENTS” (GE HEALTHCARE AS, priority 2004, published 2011).

Tests used:
[1] = Oxidation of reduced rhodamine 110 by hydrogen peroxide, increase in fluorescence; details: hydrogen peroxide 10 μM final; emission 538 nm, excitation 485 nm
Protocol: Rhodamine 110 was reduced as in Example 2. Hydrogen peroxide to a final concentration of 10 μM was added to a portion of the solution of reduced rhodamin 110, i.e. to dihydrorhodamin 110, and the increase in fluorescence was recorded at 538 nm (excitation at 485 nm) on a Thermo Fluoroscan Ascent FL fluorimeter.

[2] = Absorption spectrum of the reduced fluorochrome in phosphate-buffered saline (diode array spectrophotometer); assay type: physicochemical; details: for absorption in the visible region: reduced with sodium borohydride, diluted in phosphate-buffered saline, pH 7.4
Protocol: (§1) To 2 ml of a 1 mM solution of rhodamine 800 (Fluke, prod. No. 83701) in 0.1 M borate buffer, pH 8.5 was added approximately 5 mg of sodium borohydride. The mixture was shaken and left at room temperature for two hours. 40 microliters of the reduced solution was added to 960 μl of phosphate-buffered saline, pH 7.4. […] The spectrum of untreated rhodamine 800 (solid line) was recorded by exactly the same procedure. The sample of diluted, reduced fluorochrome was gently oxidized in air and its spectrum recorded (dashed line).
as §1, with “110 (Fluka,” for “800 (Fluke,”, “83695)” for “83701)”, “110” for “800”
as §1, with “fluorescein (Sigma,” for “rhodamine 800 (Fluke,”, “F-6377)” for “83701)”, “fluorescein” for “rhodamine 800”

[3] = Re-oxidation of the diluted, reduced fluorochrome in air, spectrum recorded; assay type: physicochemical; details: gently oxidized in air
Protocol: as §1
as §1, with “110 (Fluka,” for “800 (Fluke,”, “83695)” for “83701)”, “110” for “800”
as §1, with “fluorescein (Sigma,” for “rhodamine 800 (Fluke,”, “F-6377)” for “83701)”, “fluorescein” for “rhodamine 800”

SMILES	oxidation by hydrogen peroxide (increase in fluorescence) [1]	fluorescence following exposure to visible light [2]	absorption in the visible region [2]	optical properties after oxidation of the reduced fluorochrome [3]
Nc1ccc2c(c1)Oc1cc(N)ccc1C2c1ccccc1C(=O)O [dihydro-rhodamine 110]	rapidly oxidised	very little fluorescence	virtually no absorption in the visible region	regaining its optical properties
O=C(O)c1ccccc1C1c2ccc(O)cc2Oc2cc(O)ccc21 [dihydrofluorescein]		no fluorescence	losing nearly all absorption in the visible region	regaining its optical properties
N#CC1c2cc3c4c(c2Oc2c1cc1c5c2CCCN5CCC1)CCCN4CCC3 [dihydro-rhodamine 800]		no fluorescence	losing nearly all absorption in the visible region	regaining its optical properties
